Test results taken from ChEMBL document CHEMBL1156903, “Synthesis of bisboron compounds and their strong inhibitory activity on store-operated calcium entry” (Bioorg Med Chem Lett, 2010).

test: Inhibition of thapsigargin-induced SOCE channel in fura-2 loaded human Jarkart T cells in presence of 2 mM calcium; details: Jurkat

Row | Structure (SMILES) | IC50 [nM]
1 | NCCOB(c1ccccc1)c1ccccc1 | 15000
2 | NCCOB(c1ccccc1)c1cccc(COCc2cccc(B(OCCN)c3ccccc3)c2)c1 | 320
3 | NCCOB(c1ccccc1)c1ccc(Oc2ccc(B(OCCN)c3ccccc3)cc2)cc1 | 410
4 | NCCOB(c1ccccc1)c1ccc(CCOCc2ccc(B(OCCN)c3ccccc3)cc2)cc1 | 310
5 | Cc1ccc(B(OCCN)c2ccc(Oc3ccc(B(OCCN)c4ccc(C)c(Cl)c4)cc3)cc2)cc1Cl | 640
6 | NCCOB(c1ccccc1)c1ccc(COCc2ccc(B(OCCN)c3ccccc3)cc2)cc1 | 430
7 | NCCOB(c1ccccc1)c1ccc(-c2ccc(B(OCCN)c3ccccc3)cc2)cc1 | 450
8 | NCCOB(c1ccccc1)c1cccc(COCc2cccc(Oc3ccccc3)c2)c1 | 1900
